Earlier results, collected in US20150320795A1, “COMPOSITIONS AND METHODS COMPRISING POLYETHYLENE GLYCOL AND MAGNESIUM FOR TREATMENT OF NEURONAL INJURY” (priority 2012, published 2015).
Where two headings read alike, the source gives them in different places.

Columns and labels:
[1] = previously published
brain injury = conditions: animals; U.S. application Ser. No. 11/418,153

- serum magnesium half-lives ([1]; healthy volunteers, after one infusion): 1.25 to 4.75 h
- serum magnesium half-lives ([1]; patients, pre-eclampsia): 5.2 h
SMILES: [Mg+2] [magnesium]
- serum magnesium half-lives ([1]; brain injured patients after a 24-hour infusion period): ~6 h
- effect on the loss of cognitive functions following brain injury (brain injury): no effect
